Source: ChEMBL document CHEMBL1201862, “PubChem BioAssay data set” (2004)
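Exposure lasted 48 hours, with cells grown in 96-well plates and compounds tested at five concentrations. GI50 is the concentration that inhibits growth by half.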 The source made the active and inactive calls. Rule as the data show it: active = GI50 up to about 1.1 µM and inactive = higher.

How the values were obtained:
Test in all cases: growth of human tumour cells (NCI), 48 h
[1] = test system: EKVX
[2] = test system: UACC-62
[3] = test system: BT-549
[4] = test system: COLO 205
[5] = test system: SF-268
[6] = test system: OVCAR-4
[7] = test system: OVCAR-8
[8] = test system: MDA-N
[9] = test system: MDA-MB-435
[10] = test system: HOP-92
[11] = test system: OVCAR-3
[12] = test system: SNB-19
[13] = test system: SK-MEL-5
[14] = test system: LOX IMVI
[15] = test system: HCT-15
[16] = test system: HCC 2998
[17] = test system: DU-145
[18] = test system: SR
[19] = test system: U-251
[20] = test system: RPMI-8226
[21] = test system: SK-MEL-28
[22] = test system: NCI-H23
[23] = test system: RXF 393
[24] = test system: KM12
[25] = test system: NCI/ADR-RES
[26] = test system: Malme-3M
[27] = test system: HOP-62
[28] = test system: ACHN
[29] = test system: SF-539
[30] = test system: OVCAR-5
[31] = test system: SK-MEL-2
[32] = test system: NCI-H522
[33] = test system: M14
[34] = test system: UACC-257
[35] = test system: T47D
[36] = test system: MOLT-4
[37] = test system: MCF7
[38] = test system: K562
[39] = test system: HCT-116
[40] = test system: TK-10
[41] = test system: 786-0
[42] = test system: PC-3
[43] = test system: HL-60
[44] = test system: NCI-H460
[45] = test system: NCI-H226
[46] = test system: UO-31
[47] = test system: A549
[48] = test system: SF-295
[49] = test system: SW-620
[50] = test system: SN12C
[51] = test system: CAKI-1
[52] = test system: HT-29
[53] = test system: IGROV-1
[54] = test system: SK-OV-3
[55] = test system: MDA-MB-231
[56] = test system: CCRF-CEM
[57] = test system: SNB-75

Question: With `O=c1c2cc(I)ccc2nc(-c2cccs2)n1-c1ccc(O)cc1` as the compound, how does the GI50 [1] read?
Answer: Its GI50 is 14.4 µM (inactive).

Question: What about the GI50 [2] of the same compound?
Answer: The GI50 was 13.1 µM (inactive).

Question: And the GI50 [3]?
Answer: Its GI50 is 14.5 µM (inactive).

Question: What about the GI50 [4] of the same compound?
Answer: Its GI50 is 17.2 µM (inactive).

Question: And the GI50 [5]?
Answer: The GI50 was 14.1 µM (inactive).

Question: And the GI50 [6]?
Answer: Its GI50 is 12.6 µM (inactive).

Question: What about the GI50 [7] of the same compound?
Answer: The GI50 was 15.5 µM (inactive).

Question: What about the GI50 [8] of the same compound?
Answer: The GI50 was 14.6 µM (inactive).

Question: What about the GI50 [9] of the same compound?
Answer: Its GI50 is 12 µM (inactive).

Question: What about the GI50 [10] of the same compound?
Answer: The GI50 was 10.1 µM (inactive).

Question: What about the GI50 [11] of the same compound?
Answer: Its GI50 is 9.51 µM (inactive).

Question: And the GI50 [12]?
Answer: The GI50 was 16.6 µM (inactive).

Question: And the GI50 [13]?
Answer: Its GI50 is 11.6 µM (inactive).

Question: What about the GI50 [14] of the same compound?
Answer: The GI50 was 11.6 µM (inactive).

Question: And the GI50 [15]?
Answer: The GI50 was 12.4 µM.

Question: And the GI50 [16]?
Answer: The GI50 was 16.1 µM (inactive).

Question: What about the GI50 [17] of the same compound?
Answer: Its GI50 is 6.78 µM (inactive).

Question: What about the GI50 [18] of the same compound?
Answer: The GI50 was 17.4 µM (inactive).

Question: And the GI50 [19]?
Answer: Its GI50 is 17.9 µM (inactive).

Question: What about the GI50 [20] of the same compound?
Answer: The GI50 was 3.37 µM (inactive).

Question: What about the GI50 [21] of the same compound?
Answer: The GI50 was 16 µM (inactive).

Question: And the GI50 [22]?
Answer: Its GI50 is 16.7 µM (inactive).

Question: What about the GI50 [23] of the same compound?
Answer: Its GI50 is 14.8 µM (inactive).

Question: What about the GI50 [24] of the same compound?
Answer: Its GI50 is 11.2 µM (inactive).

Question: And the GI50 [25]?
Answer: Its GI50 is 17.8 µM (inactive).

Question: What about the GI50 [26] of the same compound?
Answer: The GI50 was 5.4 µM (inactive).

Question: And the GI50 [27]?
Answer: The GI50 was 17.5 µM (inactive).

Question: And the GI50 [28]?
Answer: Its GI50 is 8.2 µM (inactive).

Question: And the GI50 [29]?
Answer: Its GI50 is < 0.01 µM (active).

Question: And the GI50 [30]?
Answer: The GI50 was 15.5 µM (inactive).

Question: And the GI50 [31]?
Answer: The GI50 was 15.6 µM (inactive).

Question: And the GI50 [32]?
Answer: The GI50 was 13.1 µM (inactive).

Question: And the GI50 [33]?
Answer: The GI50 was 15.8 µM (inactive).

Question: What about the GI50 [34] of the same compound?
Answer: Its GI50 is < 0.01 µM (active).

Question: And the GI50 [35]?
Answer: The GI50 was 1.56 µM (inactive).

Question: What about the GI50 [36] of the same compound?
Answer: Its GI50 is 6.04 µM (inactive).

Question: And the GI50 [37]?
Answer: The GI50 was 11.5 µM (inactive).

Question: And the GI50 [38]?
Answer: The GI50 was 24.2 µM (inactive).

Question: What about the GI50 [39] of the same compound?
Answer: The GI50 was 14.3 µM (inactive).

Question: What about the GI50 [40] of the same compound?
Answer: Its GI50 is 10.7 µM (inactive).

Question: And the GI50 [41]?
Answer: The GI50 was 16.3 µM (inactive).

Question: What about the GI50 [42] of the same compound?
Answer: The GI50 was 10.6 µM (inactive).

Question: And the GI50 [43]?
Answer: Its GI50 is 7.82 µM (inactive).

Question: And the GI50 [44]?
Answer: Its GI50 is 14.9 µM (inactive).

Question: What about the GI50 [45] of the same compound?
Answer: Its GI50 is 14.4 µM (inactive).

Question: What about the GI50 [46] of the same compound?
Answer: Its GI50 is 10.4 µM (inactive).

Question: What about the GI50 [47] of the same compound?
Answer: Its GI50 is 10.2 µM (inactive).

Question: And the GI50 [48]?
Answer: Its GI50 is 12.6 µM (inactive).

Question: What about the GI50 [49] of the same compound?
Answer: Its GI50 is 22.2 µM (inactive).

Question: What about the GI50 [50] of the same compound?
Answer: Its GI50 is 15.5 µM (inactive).

Question: What about the GI50 [51] of the same compound?
Answer: The GI50 was 17.1 µM (inactive).

Question: What about the GI50 [52] of the same compound?
Answer: Its GI50 is 13 µM (inactive).

Question: And the GI50 [53]?
Answer: The GI50 was 13.5 µM (inactive).

Question: Which results are given for `COC(=O)C1=C(C(=O)OC)C(Cc2ccccc2)(OO)OC1=O` (configuration not stated)?
Answer: GI50 [1]: 11.3 µM (inactive); GI50 [2]: 3.52 µM (inactive); GI50 [3]: 6.32 µM (inactive); GI50 [4]: 7.19 µM (inactive); GI50 [6]: 16 µM (inactive); GI50 [7]: 18.4 µM (inactive); GI50 [8]: 4.03 µM (inactive); GI50 [9]: 3.52 µM (inactive); GI50 [10]: 5.94 µM (inactive); GI50 [11]: 4.33 µM (inactive); GI50 [12]: 22 µM (inactive); GI50 [13]: 4.26 µM (inactive); GI50 [14]: 3.59 µM (inactive); GI50 [15]: 3.21 µM; GI50 [16]: 60.1 µM (inactive); GI50 [17]: 23 µM (inactive); GI50 [18]: 3.52 µM (inactive); GI50 [54]: 29 µM (inactive); GI50 [19]: 12.8 µM (inactive); GI50 [21]: 7.76 µM (inactive); GI50 [22]: 12.7 µM (inactive); GI50 [23]: 4.94 µM (inactive); GI50 [24]: 19.1 µM (inactive); GI50 [25]: 7.82 µM (inactive); GI50 [26]: 6.22 µM (inactive); GI50 [28]: 2.99 µM (inactive); GI50 [29]: 3.15 µM (inactive); GI50 [30]: 18.8 µM (inactive); GI50 [31]: 5.65 µM (inactive); GI50 [32]: 2.32 µM (inactive); GI50 [55]: 28.2 µM (inactive); GI50 [33]: 3.8 µM (inactive); GI50 [34]: 4.38 µM (inactive); GI50 [35]: 9.98 µM (inactive); GI50 [36]: 3.64 µM (inactive); GI50 [37]: 3.78 µM (inactive); GI50 [38]: 2.7 µM (inactive); GI50 [39]: 3.35 µM (inactive); GI50 [40]: 3.4 µM (inactive); GI50 [41]: 2.95 µM (inactive); GI50 [42]: 13.1 µM (inactive); GI50 [43]: 0.964 µM (active); GI50 [44]: 36.2 µM (inactive); GI50 [45]: 5.46 µM (inactive); GI50 [46]: 5.18 µM (inactive); GI50 [47]: 27.4 µM (inactive); GI50 [56]: 1.04 µM (active); GI50 [48]: 29.5 µM (inactive); GI50 [49]: 2.83 µM (inactive); GI50 [50]: 4.22 µM (inactive); GI50 [51]: 4.82 µM (inactive); GI50 [52]: 3.17 µM (inactive); GI50 [53]: 4.65 µM (inactive); GI50 [57]: 9.33 µM (inactive)
